Reference: patent US20100130408A1, “USE OF MODIFIED CYCLOSPORINS” (priority 2006, published 2010)

Assays:
MAPKs Signaling Pathways = assay: Western blot analysis for phospho- and nonphospho-MAPKs; type: cell-based, human
Protocol: Western blot analysis for phospho- and nonphospho-MAPKs: Western blot analysis is performed as described in Uchimura, et al, Hepatology (2001) 33:91099. HSCs are starved for 24 h, then treated with or without NIM811 for 2 h. Whole cell lysates containing 1×10^7 TWNT-4 cells are prepared in 100 μl SDS-PAGE sample buffer. Protein lysates are subjected to 12% SDS-PAGE, transferred to a polyvinylidene difluoride membrane (Millipore, Bedford, Mass.), and probed with the primary antibody for ERK1/2 MAPK, phospho-ERK1/2 MAPK (Thr202/Tyr204), JNK, phospho-JNK (Thr183/Tyr185), p38 MAPK, or phospho-p38 MAPK (Thr180/Tyr182) (New England Biolabs, Beverly, Mass.). Antibody binding is detected using peroxidase linked anti-rabbit IgG (Amersham Pharmacia Biotech, Piscataway, N.J.) as the secondary antibody. The blots are developed using ECL-plus (Amersham Pharmacia Biotech, Piscataway, N.J.) to visualize the antibodies. The levels of ERK1/2 MAPK, phosphorylated-ERK1/2 MAPK, JNK, phosphorylated-JNK, p38 MAPK, and phosphorylated-p38 MAPK are quantitated by densitometry using an optical scanner system. For comparison, the ratios of phosphorylated ERK1/2, JNK, and p38 MAPK to nonphosphorylated ERK1/2, JNK, and p38 MAPK, respectively, are calculated from the densitometric data.

TGFβ Signaling Pathways = assay: Western blot analysis for phospho- and nonphospho-Smad2 and Smad3; type: cell-based, human; details: 0.5 μM
Protocol: Western blot analysis for phospho- and nonphospho-Smad2 and Smad3: Western blot analysis is performed as described above for MAPK analysis and probed with a primary antibody for Smad2, phospho-Smad2 (Thr/Tyr), Smad3, or phospho-Smad3 (Thr/Tyr) (Cell Signaling Technology, Danvers, Mass.). For comparison, the ratios of phosphorylated Smad2 and Smad3 to nonphosphorylated Smad2 and Smad3, respectively, are calculated from densitometric data.

HCV = details: Watashi et al., Hepatology (2003); cited from earlier work
[1] = tested on: cultured mouse hepatocytes; details: Kon et al, Hepatology (2004); cited from earlier work
cyclophilin A = cyclophilin A (Homo sapiens, UniProt P62937); details: Waldmeier et al, Mol Pharmacol (2002); cited from earlier work
cyclophilin A, sequence (P62937 whole entry, species assumed): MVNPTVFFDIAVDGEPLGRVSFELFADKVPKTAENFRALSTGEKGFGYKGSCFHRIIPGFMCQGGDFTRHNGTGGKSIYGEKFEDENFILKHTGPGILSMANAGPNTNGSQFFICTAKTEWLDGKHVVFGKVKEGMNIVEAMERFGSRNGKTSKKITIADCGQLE

C/C=C/C[C@@H](C)[C@@H](O)[C@H]1C(=O)N[C@@H](CC)C(=O)N(C)CC(=O)N(C)[C@@H]([C@@H](C)CC)C(=O)N[C@@H](C(C)C)C(=O)N(C)[C@@H](CC(C)C)C(=O)N[C@@H](C)C(=O)N[C@H](C)C(=O)N(C)[C@@H](CC(C)C)C(=O)N(C)[C@@H](CC(C)C)C(=O)N(C)[C@@H](C(C)C)C(=O)N1C [NIM811]
phosphorylation of ERK1/2 (MAPKs Signaling Pathways): does not suppress ERK1/2 | enhancement of phosphorylation of JNK (MAPKs Signaling Pathways; 0.5 μM): ~3.6 fold | enhancement of phosphorylation of p38 MAPK (MAPKs Signaling Pathways; 0.5 μM): ~2.3 fold | suppression of phosphorylation of Smad2 (TGFβ Signaling Pathways): ~70% | suppression of phosphorylation of Smad3 (TGFβ Signaling Pathways): ~60% | replication of HCV in vitro (HCV): suppresses replication of HCV replication in vitro | acetaminophen-induced necrosis and apoptosis [1]: prevented acetaminophen-induced necrosis and apoptosis | binding to cyclophilin A (cyclophilin A): does not bind to cyclophilin A
